System: HOP-62 multicell spheroids with HUVEC/MSC, viability
Experiment: Anticancer human tumor HOP-62 cell line growth inhibition [KRAS2];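 further: viability read after a week of compound exposure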;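 on viability, T/C: 100% = DMSO vehicle-treated spheroids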
Details: for IC50: curve of first compound; for viability, T/C: stronger effect = lower value
Procedure, shortened: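 Combination screen of spheroid viability in tumor-cell co-cultures with endothelial (HUVEC) and mesenchymal stem cell stroma. Each agent was tested in half-log dilutions, topping at clinical Cmax or at 10 microM without a known Cmax.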

[1] = second compound 0.1 µM, first compound 0.0316 µM
[2] = second compound 0.1 µM, first compound 0.1 µM
[3] = second compound 0.1 µM, first compound 0.316 µM
[4] = second compound 0.1 µM, first compound 1 µM
[5] = second compound 0.1 µM, first compound 3.16 µM
[6] = second compound 0.316 µM, first compound 0.0316 µM
[7] = second compound 0.316 µM, first compound 0.1 µM
[8] = second compound 0.316 µM, first compound 0.316 µM
[9] = second compound 0.316 µM, first compound 1 µM
[10] = second compound 0.316 µM, first compound 3.16 µM
[11] = second compound 1 µM, first compound 0.0316 µM
[12] = second compound 1 µM, first compound 0.1 µM
[13] = second compound 1 µM, first compound 0.316 µM
[14] = second compound 1 µM, first compound 1 µM
[15] = second compound 1 µM, first compound 3.16 µM
[16] = second compound 3.16 µM, first compound 0.0316 µM
[17] = second compound 3.16 µM, first compound 0.1 µM
[18] = second compound 3.16 µM, first compound 0.316 µM
[19] = second compound 3.16 µM, first compound 1 µM
[20] = second compound 3.16 µM, first compound 3.16 µM
[21] = second compound 0.0316 µM, first compound 0.01 µM
[22] = second compound 0.0316 µM, first compound 0.0316 µM
[23] = second compound 0.0316 µM, first compound 0.1 µM
[24] = second compound 0.1 µM, first compound 0.01 µM
[25] = second compound 0.316 µM, first compound 0.01 µM
[26] = second compound 1 µM, first compound 0.01 µM
[27] = second compound 3.16 µM, first compound 0.01 µM

Q: Which results are given for Cn1nccc1Nc1nccc(-c2cc3c(s2)C(C)(C)N(CCN2CCOCC2)C3=O)n1 + CC1OCC2(CCN(c3cnc(Sc4ccnc(N)c4Cl)c(N)n3)CC2)C1N?
A: IC50 (second compound 0.1 µM): 803 nM; IC50 (second compound 0.316 µM): 331 nM; IC50 (second compound 1 µM): 97.8 nM; IC50 (second compound 3.16 µM): < 31.6 nM; IC50 (second compound 10 µM): < 31.6 nM; viability, T/C [1]: 94.3%; viability, T/C [2]: 85.4%; viability, T/C [3]: 70%; viability, T/C [4]: 48.6%; viability, T/C [5]: 21.4%; viability, T/C (second compound 0.1 µM, first compound 10 µM): 24.1%; viability, T/C [6]: 85.2%; viability, T/C [7]: 71.6%; viability, T/C [8]: 51.8%; viability, T/C [9]: 30.8%; viability, T/C [10]: 21.8%; viability, T/C (second compound 0.316 µM, first compound 10 µM): 20.5%; viability, T/C [11]: 62.9%; viability, T/C [12]: 48.4%; viability, T/C [13]: 36%; viability, T/C [14]: 21.2%; viability, T/C [15]: 18.1%; viability, T/C (second compound 1 µM, first compound 10 µM): 18.7%; viability, T/C [16]: 40.2%; viability, T/C [17]: 35.4%; viability, T/C [18]: 31.9%; viability, T/C [19]: 15.7%; viability, T/C [20]: 14.9%; viability, T/C (second compound 3.16 µM, first compound 10 µM): 16.6%; viability, T/C (second compound 10 µM, first compound 0.0316 µM): 29.6%; viability, T/C (second compound 10 µM, first compound 0.1 µM): 35.7%; viability, T/C (second compound 10 µM, first compound 0.316 µM): 18.7%; viability, T/C (second compound 10 µM, first compound 1 µM): 17.1%; viability, T/C (second compound 10 µM, first compound 3.16 µM): 13.7%; viability, T/C (second compound 10 µM, first compound 10 µM): 11.9%

Q: For CN(C)C/C=C/C(=O)Nc1cc2c(Nc3ccc(F)c(Cl)c3)ncnc2cc1O[C@H]1CCOC1 + C=CC(=O)N1CCN(c2nc(OCC3CCCN3C)nc3c2CCN(c2cccc4cccc(C)c24)C3)CC1CC#N, which IC50 (second compound 0.0316 µM) is on record?
A: The IC50 was over 100 nM.

Q: What about the IC50 (second compound 0.1 µM) of the same compound?
A: The IC50 was over 100 nM.

Q: What about the IC50 (second compound 0.316 µM) of the same compound?
A: Its IC50 is 4.39 nM.

Q: And the IC50 (second compound 1 µM)?
A: The IC50 was under 0.316 nM.

Q: What about the IC50 (second compound 3.16 µM) of the same compound?
A: Its IC50 is under 0.316 nM.

Q: What about the viability, T/C (second compound 0.0316 µM, first compound 0.000316 µM) of the same compound?
A: Its viability, T/C is 111%.

Q: What about the viability, T/C (second compound 0.0316 µM, first compound 0.001 µM) of the same compound?
A: Its viability, T/C is 105%.

Q: What about the viability, T/C (second compound 0.0316 µM, first compound 0.00316 µM) of the same compound?
A: Its viability, T/C is 94.9%.

Q: And the viability, T/C [21]?
A: Its viability, T/C is 86%.

Q: And the viability, T/C [22]?
A: The viability, T/C was 99.3%.

Q: What about the viability, T/C [23] of the same compound?
A: Its viability, T/C is 89.6%.

Q: And the viability, T/C (second compound 0.1 µM, first compound 0.000316 µM)?
A: The viability, T/C was 69%.

Q: And the viability, T/C (second compound 0.1 µM, first compound 0.001 µM)?
A: Its viability, T/C is 75.4%.

Q: What about the viability, T/C (second compound 0.1 µM, first compound 0.00316 µM) of the same compound?
A: Its viability, T/C is 67.1%.

Q: What about the viability, T/C [24] of the same compound?
A: Its viability, T/C is 61.5%.

Q: What about the viability, T/C [1] of the same compound?
A: The viability, T/C was 67.4%.

Q: What about the viability, T/C [2] of the same compound?
A: Its viability, T/C is 61.2%.

Q: What about the viability, T/C (second compound 0.316 µM, first compound 0.000316 µM) of the same compound?
A: Its viability, T/C is 57.4%.

Q: And the viability, T/C (second compound 0.316 µM, first compound 0.001 µM)?
A: The viability, T/C was 52.6%.

Q: And the viability, T/C (second compound 0.316 µM, first compound 0.00316 µM)?
A: Its viability, T/C is 49.4%.

Q: What about the viability, T/C [25] of the same compound?
A: The viability, T/C was 48.8%.

Q: And the viability, T/C [6]?
A: Its viability, T/C is 46.8%.

Q: What about the viability, T/C [7] of the same compound?
A: Its viability, T/C is 42.1%.

Q: And the viability, T/C (second compound 1 µM, first compound 0.000316 µM)?
A: The viability, T/C was 42.8%.

Q: And the viability, T/C (second compound 1 µM, first compound 0.001 µM)?
A: The viability, T/C was 44.9%.

Q: What about the viability, T/C (second compound 1 µM, first compound 0.00316 µM) of the same compound?
A: The viability, T/C was 41%.

Q: And the viability, T/C [26]?
A: Its viability, T/C is 37%.

Q: And the viability, T/C [11]?
A: Its viability, T/C is 31.5%.

Q: What about the viability, T/C [12] of the same compound?
A: The viability, T/C was 32.2%.

Q: What about the viability, T/C (second compound 3.16 µM, first compound 0.000316 µM) of the same compound?
A: The viability, T/C was 22.5%.

Q: And the viability, T/C (second compound 3.16 µM, first compound 0.001 µM)?
A: Its viability, T/C is 0.2%.

Q: What about the viability, T/C (second compound 3.16 µM, first compound 0.00316 µM) of the same compound?
A: Its viability, T/C is 3.5%.

Q: What about the viability, T/C [27] of the same compound?
A: The viability, T/C was 6.01%.

Q: What about the viability, T/C [16] of the same compound?
A: Its viability, T/C is 17.6%.

Q: And the viability, T/C [17]?
A: The viability, T/C was 13.5%.

Q: With CC1COCCN1c1cc(-c2ccnn2C)c2ccnc(-c3ccn[nH]3)c2n1 (stereo not given) + C=CC(=O)N1CCN(c2nc(OCC3CCCN3C)nc3c2CCN(c2cccc4cccc(C)c24)C3)CC1CC#N as the compound, how does the IC50 (second compound 0.0316 µM) read?
A: The IC50 was 39.9 nM.

Q: And the IC50 (second compound 0.1 µM)?
A: The IC50 was 30.9 nM.

Q: What about the IC50 (second compound 0.316 µM) of the same compound?
A: Its IC50 is 12.2 nM.

Q: What about the IC50 (second compound 1 µM) of the same compound?
A: Its IC50 is under 10 nM.

Q: And the IC50 (second compound 3.16 µM)?
A: The IC50 was under 10 nM.

Q: And the viability, T/C [21]?
A: Its viability, T/C is 94.9%.

Q: And the viability, T/C [22]?
A: The viability, T/C was 55.4%.

Q: What about the viability, T/C [23] of the same compound?
A: Its viability, T/C is 28.6%.

Q: And the viability, T/C (second compound 0.0316 µM, first compound 0.316 µM)?
A: Its viability, T/C is 17.6%.

Q: What about the viability, T/C (second compound 0.0316 µM, first compound 1 µM) of the same compound?
A: Its viability, T/C is 14%.

Q: What about the viability, T/C (second compound 0.0316 µM, first compound 3.16 µM) of the same compound?
A: The viability, T/C was 12.8%.

Q: What about the viability, T/C [24] of the same compound?
A: Its viability, T/C is 79.4%.

Q: And the viability, T/C [1]?
A: The viability, T/C was 49.3%.

Q: What about the viability, T/C [2] of the same compound?
A: The viability, T/C was 22.7%.

Q: What about the viability, T/C [3] of the same compound?
A: Its viability, T/C is 12%.

Q: And the viability, T/C [4]?
A: The viability, T/C was 11.7%.

Q: And the viability, T/C [5]?
A: Its viability, T/C is 10%.

Q: What about the viability, T/C [25] of the same compound?
A: Its viability, T/C is 54%.

Q: And the viability, T/C [6]?
A: Its viability, T/C is 30.3%.

Q: What about the viability, T/C [7] of the same compound?
A: The viability, T/C was 19.4%.

Q: And the viability, T/C [8]?
A: The viability, T/C was 10.9%.

Q: And the viability, T/C [9]?
A: Its viability, T/C is 9.7%.

Q: What about the viability, T/C [10] of the same compound?
A: Its viability, T/C is 7.82%.

Q: And the viability, T/C [26]?
A: Its viability, T/C is 27.2%.

Q: What about the viability, T/C [11] of the same compound?
A: Its viability, T/C is 18.6%.

Q: And the viability, T/C [12]?
A: Its viability, T/C is 9.29%.

Q: What about the viability, T/C [13] of the same compound?
A: The viability, T/C was 8.75%.

Q: And the viability, T/C [14]?
A: The viability, T/C was 8.51%.

Q: And the viability, T/C [15]?
A: The viability, T/C was 7.02%.

Q: And the viability, T/C [27]?
A: Its viability, T/C is 2.88%.

Q: What about the viability, T/C [16] of the same compound?
A: The viability, T/C was 1.59%.

Q: And the viability, T/C [17]?
A: Its viability, T/C is 0.93%.

Q: And the viability, T/C [18]?
A: The viability, T/C was 0.21%.

Q: And the viability, T/C [19]?
A: Its viability, T/C is 0.17%.

Q: What about the viability, T/C [20] of the same compound?
A: Its viability, T/C is 3.92%.

Source: PubChem BioAssay AID1963858 (Molecular Pharmacology Branch, DTP, NCI, 2024)
